Assay results as given in patent US20230131025A1, “QUINOLYL PHOSPHINE OXIDE COMPOUND, AND COMPOSITION AND APPLICATION THEREOF” (Betta Pharmaceuticals Co., Ltd., priority 2020, published 2023).

Tests used:
[1] = system: human epidermal cancer cells A431 carrying EGFR WT; test: Cell proliferation experiment (CellTiter Glo, 72 hours); assay type: cell-based; settings: for IC50: Homo sapiens, A-431
Method in brief: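 Cells seeded at 2000 or 3000/well and exposed 72 h to 9-point 3-fold dilutions, top final 10000 nM or 1111 nM, 0.1% DMSO. Viability by CellTiter-Glo luminescence. Inhibition relative to cell and medium controls; IC50 by four-parameter nonlinear regression.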

[2] = biological target: Ba/F3-Δ19del/T790M/C797S (Homo sapiens, UniProt P00533, T790M/C797S, cells depend on it, form not given); test: as above; assay type: cell-based; settings: for GI50: read-out: Ba/F3/EGFR Δ19del/T790M/C797S IC50
Method in brief: (§1)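 Ba/F3 cells overexpressing EGFR Δ19del/T790M/C797S or EGFR WT were seeded at 2000 or 3000 cells/well and exposed 72 h to 9 compound concentrations (3-fold, top 10000 or 1111 nM final, 0.1% DMSO). CellTiter-Glo luminescence gave survival inhibition versus controls; IC50 from nonlinear fit.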

[3] = biological target: Ba/F3 EGFR WT (Homo sapiens, UniProt P00533); test: as above; assay type: cell-based; settings: for GI50: read-out: BaF3 EGFR WT IC50
Method in brief: as §1

[4] = biological target: IGF1R (Homo sapiens, UniProt P08069); test: Kinase inhibition assay (mobility shift); assay type: biochemical
Method in brief: (§2)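 Caliper mobility-shift read of substrate conversion after kinase-compound preincubation 10 min at room temperature, then ATP/substrate addition and reaction at room temperature. Ten-point 3-fold dilutions from 3,000 or 100 nM top; IC50 from variable-slope four-parameter fit of percent inhibition.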

[5] = biological target: EGFR WT (Homo sapiens, UniProt P00533); test: Kinase inhibition assay (mobility shift); assay type: biochemical
Method in brief: as §2

[6] = biological target: EGFR Δ19del/T790M/C797S (Homo sapiens, UniProt P00533, T790M/C797S, form not given); test: Kinase inhibition assay (mobility shift); assay type: biochemical
Method in brief: as §2

[7] = In vivo safety experiment (body weight, tolerance); settings: for Mortality of mice / Body weight of mouse: 75 mg/kg/day oral QD; for Mortality of mice: 7 consecutive days, 5 mice
Description: The safety evaluation of the drug was carried out in BALB/c nude mice. […] They were fed in an SPF environment, and each cage was individually ventilated (5 mice per cage). All cages, bedding and water were disinfected prior to use. Mice were purchased from Viton Lever and were allowed to acclimate in the laboratory. Mice were administered orally QD.

[8] = In vivo efficacy data of Comparative example 1 cited from WO2019/015655A1, TGI and ED50 calculated; settings: nonlinear fitting of dosage vs TGI calculated from cited data, FIG. 1
Description: Moreover, the data of Comparative example 1 (in the patent WO2019/015655A1) was cited in Table 4, and the TGI of each administration group was calculated. Nonlinear fitting was performed according to the administrating dosage and the tumor growth inhibition rate TGI (%) corresponding to each dosage using GraphPad Prism 8. The fitting formula is as follows and its ED50 (half effective dose) was calculated: Y=Bottom+(Top-Bottom)/(1+10^((Log ED50−X)*HillSlope)).
TGI was calculated according to the administration dosage and tumor growth volume of Comparative example 1. Nonlinear fitting was performed on the administration dosage and corresponding TGI (%). […] It can be seen that the half effective dose of compound J-022, which is 10 mg/kg/day, is equivalent to that of Comparative example 1.

IGF1R, sequence (P08069 31-1367, species assumed): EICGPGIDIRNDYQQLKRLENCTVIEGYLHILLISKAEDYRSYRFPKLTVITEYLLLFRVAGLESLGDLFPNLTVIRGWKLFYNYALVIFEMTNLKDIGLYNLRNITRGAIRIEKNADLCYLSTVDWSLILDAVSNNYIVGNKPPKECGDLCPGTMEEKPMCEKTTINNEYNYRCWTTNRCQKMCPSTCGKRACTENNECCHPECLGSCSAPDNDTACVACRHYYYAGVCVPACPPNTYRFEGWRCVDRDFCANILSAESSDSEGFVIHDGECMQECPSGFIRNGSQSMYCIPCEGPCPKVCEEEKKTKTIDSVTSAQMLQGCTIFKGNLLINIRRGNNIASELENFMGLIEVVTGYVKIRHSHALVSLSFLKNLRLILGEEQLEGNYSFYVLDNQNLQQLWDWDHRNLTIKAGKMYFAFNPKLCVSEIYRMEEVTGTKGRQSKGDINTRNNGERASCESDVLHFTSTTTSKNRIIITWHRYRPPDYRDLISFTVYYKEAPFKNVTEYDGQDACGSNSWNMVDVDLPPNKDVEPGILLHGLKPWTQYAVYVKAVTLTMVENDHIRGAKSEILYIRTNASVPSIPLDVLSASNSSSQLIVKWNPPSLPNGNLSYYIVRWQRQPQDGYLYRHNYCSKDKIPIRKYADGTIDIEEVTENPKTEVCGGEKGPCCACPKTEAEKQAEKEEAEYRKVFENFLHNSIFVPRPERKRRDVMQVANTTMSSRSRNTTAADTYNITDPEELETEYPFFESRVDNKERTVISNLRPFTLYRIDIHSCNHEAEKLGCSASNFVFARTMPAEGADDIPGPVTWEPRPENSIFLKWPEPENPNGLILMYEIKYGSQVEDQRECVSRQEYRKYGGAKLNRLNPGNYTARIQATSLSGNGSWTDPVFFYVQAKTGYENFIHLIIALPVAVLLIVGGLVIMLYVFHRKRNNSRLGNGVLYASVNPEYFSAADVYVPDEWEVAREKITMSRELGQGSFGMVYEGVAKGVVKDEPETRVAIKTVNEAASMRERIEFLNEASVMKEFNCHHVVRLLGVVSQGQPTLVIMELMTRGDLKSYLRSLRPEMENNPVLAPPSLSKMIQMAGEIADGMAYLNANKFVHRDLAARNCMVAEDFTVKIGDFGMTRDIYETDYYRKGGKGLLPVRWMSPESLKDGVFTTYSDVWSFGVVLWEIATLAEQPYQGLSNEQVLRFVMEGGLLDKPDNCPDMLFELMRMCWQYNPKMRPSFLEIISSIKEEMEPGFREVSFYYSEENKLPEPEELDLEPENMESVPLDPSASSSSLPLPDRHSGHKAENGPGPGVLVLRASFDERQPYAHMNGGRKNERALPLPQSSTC
EGFR WT, sequence (P00533 25-1210): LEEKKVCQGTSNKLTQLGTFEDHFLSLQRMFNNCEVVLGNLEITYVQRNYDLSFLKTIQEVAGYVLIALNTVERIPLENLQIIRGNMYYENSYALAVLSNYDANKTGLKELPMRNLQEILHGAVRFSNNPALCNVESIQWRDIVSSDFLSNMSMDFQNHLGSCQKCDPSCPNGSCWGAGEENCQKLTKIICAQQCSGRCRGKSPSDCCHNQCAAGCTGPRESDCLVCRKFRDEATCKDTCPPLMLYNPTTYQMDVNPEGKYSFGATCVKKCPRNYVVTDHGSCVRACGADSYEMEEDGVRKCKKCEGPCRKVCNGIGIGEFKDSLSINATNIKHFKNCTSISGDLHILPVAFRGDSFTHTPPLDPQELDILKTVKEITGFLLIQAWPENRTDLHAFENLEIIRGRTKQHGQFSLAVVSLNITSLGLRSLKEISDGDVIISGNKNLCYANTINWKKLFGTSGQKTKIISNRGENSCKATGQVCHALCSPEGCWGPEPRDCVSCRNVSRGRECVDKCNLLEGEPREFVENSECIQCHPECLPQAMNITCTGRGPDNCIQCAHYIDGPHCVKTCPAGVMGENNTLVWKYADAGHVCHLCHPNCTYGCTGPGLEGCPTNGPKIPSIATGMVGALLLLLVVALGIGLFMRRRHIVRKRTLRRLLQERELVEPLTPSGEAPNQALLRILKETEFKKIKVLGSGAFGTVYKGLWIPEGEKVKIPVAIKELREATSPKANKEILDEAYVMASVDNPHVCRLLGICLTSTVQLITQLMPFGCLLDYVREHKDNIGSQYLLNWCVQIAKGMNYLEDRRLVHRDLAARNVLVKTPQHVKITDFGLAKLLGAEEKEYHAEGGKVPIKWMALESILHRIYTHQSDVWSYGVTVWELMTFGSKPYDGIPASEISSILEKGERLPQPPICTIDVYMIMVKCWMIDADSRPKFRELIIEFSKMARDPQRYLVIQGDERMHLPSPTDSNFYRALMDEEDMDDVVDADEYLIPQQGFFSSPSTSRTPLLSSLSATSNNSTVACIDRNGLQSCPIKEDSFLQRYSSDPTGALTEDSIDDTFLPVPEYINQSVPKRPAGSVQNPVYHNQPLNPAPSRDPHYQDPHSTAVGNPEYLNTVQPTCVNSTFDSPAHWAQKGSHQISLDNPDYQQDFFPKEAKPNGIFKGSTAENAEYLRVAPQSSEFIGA
Ba/F3 EGFR WT, sequence (P00533 whole entry, change not shown): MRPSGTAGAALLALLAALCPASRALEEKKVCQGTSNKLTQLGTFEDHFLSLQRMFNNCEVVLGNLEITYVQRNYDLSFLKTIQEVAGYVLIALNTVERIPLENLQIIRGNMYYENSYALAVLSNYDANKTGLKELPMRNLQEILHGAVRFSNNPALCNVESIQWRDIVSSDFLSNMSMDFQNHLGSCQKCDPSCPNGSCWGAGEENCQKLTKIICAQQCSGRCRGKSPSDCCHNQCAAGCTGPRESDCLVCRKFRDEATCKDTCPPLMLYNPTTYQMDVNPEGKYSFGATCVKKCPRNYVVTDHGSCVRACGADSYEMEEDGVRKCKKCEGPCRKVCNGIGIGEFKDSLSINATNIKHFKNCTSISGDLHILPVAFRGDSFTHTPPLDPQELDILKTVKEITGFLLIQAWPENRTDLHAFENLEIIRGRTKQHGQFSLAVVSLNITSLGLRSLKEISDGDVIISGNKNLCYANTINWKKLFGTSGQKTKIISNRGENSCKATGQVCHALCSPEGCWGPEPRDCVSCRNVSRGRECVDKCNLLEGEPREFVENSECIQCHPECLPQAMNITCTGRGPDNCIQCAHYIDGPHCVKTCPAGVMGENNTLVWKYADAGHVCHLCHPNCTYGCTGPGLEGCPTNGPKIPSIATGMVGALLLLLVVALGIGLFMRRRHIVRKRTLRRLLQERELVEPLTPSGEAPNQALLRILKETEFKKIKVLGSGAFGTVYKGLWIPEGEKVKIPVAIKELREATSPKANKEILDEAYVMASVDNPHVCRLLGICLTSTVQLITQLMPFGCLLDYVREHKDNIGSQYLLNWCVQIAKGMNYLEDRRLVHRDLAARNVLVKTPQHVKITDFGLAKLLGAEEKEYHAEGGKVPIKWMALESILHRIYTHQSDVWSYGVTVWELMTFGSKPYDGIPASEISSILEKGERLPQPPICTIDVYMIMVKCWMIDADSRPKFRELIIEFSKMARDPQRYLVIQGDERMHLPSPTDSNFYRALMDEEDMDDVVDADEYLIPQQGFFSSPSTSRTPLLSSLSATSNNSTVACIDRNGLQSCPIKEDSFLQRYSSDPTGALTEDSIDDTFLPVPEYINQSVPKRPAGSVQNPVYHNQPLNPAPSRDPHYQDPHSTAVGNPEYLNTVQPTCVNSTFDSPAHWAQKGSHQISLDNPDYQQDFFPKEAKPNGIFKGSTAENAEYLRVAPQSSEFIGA
EGFR Δ19del/T790M/C797S, sequence (P00533 with tags, fused parts or gaps DEL746-750/T790M/C797S, form open): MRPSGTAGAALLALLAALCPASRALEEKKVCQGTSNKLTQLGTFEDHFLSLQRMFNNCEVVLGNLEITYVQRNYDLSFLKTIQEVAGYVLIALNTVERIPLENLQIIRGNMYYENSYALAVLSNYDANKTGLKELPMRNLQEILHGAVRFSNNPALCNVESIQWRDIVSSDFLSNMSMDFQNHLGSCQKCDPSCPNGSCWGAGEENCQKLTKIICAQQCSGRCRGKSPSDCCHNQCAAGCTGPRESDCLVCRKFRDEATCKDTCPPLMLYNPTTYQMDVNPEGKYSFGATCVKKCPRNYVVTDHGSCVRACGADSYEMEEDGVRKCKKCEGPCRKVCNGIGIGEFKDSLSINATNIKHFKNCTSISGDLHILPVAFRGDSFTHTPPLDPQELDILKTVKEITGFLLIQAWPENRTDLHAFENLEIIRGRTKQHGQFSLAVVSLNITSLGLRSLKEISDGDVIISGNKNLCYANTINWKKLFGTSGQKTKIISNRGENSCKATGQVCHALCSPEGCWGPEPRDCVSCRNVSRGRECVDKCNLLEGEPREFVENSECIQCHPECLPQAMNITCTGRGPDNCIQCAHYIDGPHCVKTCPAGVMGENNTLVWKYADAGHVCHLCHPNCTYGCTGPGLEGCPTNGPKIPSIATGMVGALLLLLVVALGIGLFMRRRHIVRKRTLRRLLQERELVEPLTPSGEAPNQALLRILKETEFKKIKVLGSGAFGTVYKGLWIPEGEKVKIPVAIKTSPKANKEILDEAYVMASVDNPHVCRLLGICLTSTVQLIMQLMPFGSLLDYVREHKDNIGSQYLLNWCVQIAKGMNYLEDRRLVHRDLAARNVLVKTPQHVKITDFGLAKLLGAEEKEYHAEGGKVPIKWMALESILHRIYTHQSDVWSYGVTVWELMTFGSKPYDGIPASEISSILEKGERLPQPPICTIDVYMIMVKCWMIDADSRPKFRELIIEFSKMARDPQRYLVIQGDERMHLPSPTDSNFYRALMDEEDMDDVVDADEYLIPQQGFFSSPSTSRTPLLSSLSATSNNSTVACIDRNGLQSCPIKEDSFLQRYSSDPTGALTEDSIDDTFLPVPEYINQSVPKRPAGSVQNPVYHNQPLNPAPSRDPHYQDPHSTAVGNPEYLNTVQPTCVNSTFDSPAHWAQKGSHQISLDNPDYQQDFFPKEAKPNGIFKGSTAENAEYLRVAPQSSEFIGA

| Compound | A431 IC50 [1] | Ba/F3/EGFR Δ19del/T790M/C797S IC50 [2] | GI50 [2] | BaF3 EGFR WT IC50 [3] | GI50 [3] | IC50 [4] | IGF1R IC50 [4] | EGFR WT IC50 [5] | IC50 [5] | EGFR Δ19del/T790M/C797S IC50 [6] | Mortality of mice [7] | Mortality of mice ([7]; listed as Comparative example 1) | Body weight of mouse ([7]; 2 days) | Body weight of mouse ([7]; 4 days) | window from the effective dose to the intolerance dose ([7]; effective dose = dose corresponding to 50% TGI) | half effective dose ED50 (dosage at TGI 50%) [8] | IC50 [1] | IC50 [6] |
| --- | --- | --- | --- | --- | --- | --- | --- | --- | --- | --- | --- | --- | --- | --- | --- | --- | --- | --- |
| CCc1cc(Nc2ncc(Br)c(Nc3ccc4nccnc4c3P(C)(C)=O)n2)c(OC)cc1N1CCC(N2CCN(C)CC2)CC1 [Comparable example 1, reference compound] | certain inhibitory effect | strong inhibitory effect | 9 nM | strong inhibitory effect | 39.9 nM | 9.5 nM | strong inhibitory activity | strong inhibitory activity | 5.1 nM | strong inhibitory effect | all the 5 mice died on the 6th day | all mice died of intolerance | began to decrease | decreased significantly | less than 8.6 times | 8.7 mg/kg/day | – | – |
| COc1cc(Nc2ncc(Br)c(Nc3ccc4nc(C5CC5)ccc4c3P(C)(C)=O)n2)c(C2CC2)cc1N1CCC(N2CCN(C)CC2)CC1 [Compound J-024, (6-((5-Bromo-2-((2-cyclopropyl-5-methoxy-4-(4-(4-methylpiperazin-1-yl)piperidin-1-yl)phenyl)amino)pyrimidin-4-yl)amino)-2-cyclopropylquinolin-5-yl)dimethylphosphine oxide] | – | – | 26.7 nM | – | 373 nM | 140 nM | – | – | 114 nM | – | – | – | – | – | – | – | 1380 nM | 0.5 nM |
| C#Cc1ccc2c(P(C)(C)=O)c(Nc3nc(Nc4cc(OC)c(N5CCC(N6CCN(C)CC6)CC5)cc4C)ncc3Br)ccc2n1 [Compound J-015, (6-((5-Bromo-2-((5-methoxy-2-methyl-4-(4-(4-methylpiperazin-1-yl)piperidin-1-yl)phenyl)amino)pyrimidin-4-yl)amino)-2-ethynylquinolin-5-yl)dimethylphosphine oxide] | – | – | 15.8 nM | – | 388 nM | 12.1 nM | – | – | 12.1 nM | – | – | – | – | – | – | – | 678 nM | 0.29 nM |
